We go through 6 compounds from patent US9820951B2, “Pulmonary disease treatment and diagnosis based on Arhgef1” (NATIONAL JEWISH HEALTH, A NON-PROFIT ORGANIZATION, priority 2011, dated 2017).

“Also recorded” adds a separate entry of the source.

Assay [1] has as its system Mmp9. Description: MMP9 activity by gelatin zymography in conditioned media of mouse peritoneal macrophages cultured on fibronectin. Format: cell-based. As to conditions: for maximal inhibition of fibronectin-induced MMP9 production/activity: both wild type and Arhgef1-deficient macrophages, aspirin up to 20 mM, L-161,982, PTA2 1.56 or 6.25 μM, L-655,240 28 μM. As to the method: FIG. 5. TP-induced MMP9 production is only partially dependent on COX activity. A) PEMs were cultured on fibronectin for 24 hours with 5% FCS, washed then treated with different concentration of aspirin or 1.6 μM PTXA2 at for an additional 24 hours without FCS. MMP9 activity was determined by zymography from supernatants of wild type (open) or Arhgef1−/− (filled) macrophages. Activity was normalized to activity generated from cells cultured on fibronectin without treatment. B) MMP9 activity in conditioned media from peripheral blood monocytes cultured as described in panel A. Data represents mean±SE (n=3 independent donors).
FIG. 6. The antioxidant mimetic MnTE-2PyP reduces MMP9 activity in macrophages. PEMs were cultured on fibronectin for 24 hours with 5% FCS, washed then treated with MnTE-2PyP at the indicated concentrations for an additional 24 hours without FCS. MMP9 activity was determined by zymography from supernatants of wild type (open) or Arhgef1−/− (filled) macrophages. Activity was normalized to activity generated from cells cultured on fibronectin without treatment.
FIG. 11. Cyclooxygenase activity but not EP4 receptor signaling is required for MMP9 production by murine macrophages cultured on fibronectin. A, representative MMP9 gelatin zymograms of conditioned media from peritoneal macrophages cultured on either plastic (ctl) or FN and treated with increasing concentrations of aspirin (1.25, 5.0, and 20 mM, respectively). Wild type (+/+) and Arhgef1^−/− (−/−) samples from separate zymograms are shown. Molecular weight standards and respective enzymatic activities of MMP9 and MMP2 are shown. B, quantitation of MMP9 activity as determined by densitometric analysis of zymograms in A. MMP 9 activity is shown in arbitrary units and represents n=6 for both wild type (open bars) and Arhgef1^−/− (black bars) samples. The results are compiled from two independent experiments. The data represent the means±S.E. *, p<0.05 Student's two-tailed t test compared with conditioned media from cells cultured on plastic. #, p<0.05 Student's two-tailed test comparing conditioned media from wild type cells to Arhgef1^−/− cells cultured under identical conditions. $, p<0.05 Student's two-tailed t test compared with conditioned media from cells cultured on fibronectin. C, quantitation of MMP9 activity in conditioned media from macrophages cultured on fibronectin in the presence of the EP4 antagonist L161,982 (10 μM). MMP9 activity was normalized to fibronectin response for each genotype. The results are compiled from two independent experiments with wild type (open bars, n=5) and Arhgef1^−/− (black bars, n=5) samples. The data represent the means±S.E. *, p<0.05 Student's two-tailed t test compared with conditioned media from cells cultured on plastic. #, p<0.05 Student's two-tailed t test compared with conditioned media from cells cultured on fibronectin.
FIG. 12. Thromboxane receptor signaling is necessary for fibronectin-induced MMP9 production by macrophages and is attenuated by Arhgef1. A, representative gelatin zymograms of conditioned media from macrophages cultured on plastic (ctl) or FN and treated with 1.56 or 6.25 μM of the thromboxane receptor antagonist PTA2. Wild type (+/+) and Arhgef1^−/− (−/−) samples from separate zymograms are shown. B, quantitation of MMP9 activity as determined by densitometric analysis of zymograms in A. The results are representative of two independent experiments. C, representative zymograms from conditioned media from macrophages cultured on plastic or fibronectin and treated with 28 μM of the thromboxane receptor antagonist L-655,240. D, quantitation of MMP9 activity as determined by densitometric analysis of zymograms in C. The results are compiled from two independent experiments with n=4 for both wild type (open bars) and Arhgef1^−/− (black bars) samples. […]

The test system of the next assay is MMP2. Briefly: MMP2 activity by gelatin zymography in conditioned media of mouse peritoneal macrophages cultured on fibronectin. Format: cell-based. As to conditions: wild type and Arhgef1−/− macrophages; 20 mM aspirin or 28 μM L-655,240. Here is the method:
FIG. 12. Thromboxane receptor signaling is necessary for fibronectin-induced MMP9 production by macrophages and is attenuated by Arhgef1. A, representative gelatin zymograms of conditioned media from macrophages cultured on plastic (ctl) or FN and treated with 1.56 or 6.25 μM of the thromboxane receptor antagonist PTA2. Wild type (+/+) and Arhgef1^−/− (−/−) samples from separate zymograms are shown. B, quantitation of MMP9 activity as determined by densitometric analysis of zymograms in A. The results are representative of two independent experiments. C, representative zymograms from conditioned media from macrophages cultured on plastic or fibronectin and treated with 28 μM of the thromboxane receptor antagonist L-655,240. D, quantitation of MMP9 activity as determined by densitometric analysis of zymograms in C. The results are compiled from two independent experiments with n=4 for both wild type (open bars) and Arhgef1^−/− (black bars) samples. […] E, MMP2 activity was quantitated in conditioned media as previously described for MMP9. […] The data represent the means±S.E. F, MMP9 activity was quantitated as previously described and normalized to a percentage of fibronectin response for each genotype. […] G, relative Mmp9 expression was measured by qPCR in macrophages cultured on fibronectin in the presence of the thromboxane receptor agonist (U-46619, 10 nM), S1P (40 nM), or LPA (10 μM). […]

The subject of assay [2] is Mmp9. Description: Mmp9 expression by qPCR in mouse peritoneal macrophages cultured on fibronectin. Format: cell-based. Here is the method: (§1) FIG. 4. TP signaling is required for MMP9 production in vitro and in vivo. A) Macrophage Mmp9 expression after culture on fibronectin for 24 hrs in media/vehicle (−), 40 nM S1P, 10 μM LPA, 10 nM U-46619 (TP agonist) or 6 μM PTXA2 (TP antagonist). Data represent normalized mean±SE. B) Arhgef1−/− mice (n=16) were exposed to aerosolized PBS (n=16), 220 μM PTXA2 (n=6) or 190 μM U-46619 (n=10) for 20 minutes and BAL harvested 1 day later and MMP activity measured.
FIG. 12. Thromboxane receptor signaling is necessary for fibronectin-induced MMP9 production by macrophages and is attenuated by Arhgef1. A, representative gelatin zymograms of conditioned media from macrophages cultured on plastic (ctl) or FN and treated with 1.56 or 6.25 μM of the thromboxane receptor antagonist PTA2. Wild type (+/+) and Arhgef1^−/− (−/−) samples from separate zymograms are shown. B, quantitation of MMP9 activity as determined by densitometric analysis of zymograms in A. The results are representative of two independent experiments. C, representative zymograms from conditioned media from macrophages cultured on plastic or fibronectin and treated with 28 μM of the thromboxane receptor antagonist L-655,240. D, quantitation of MMP9 activity as determined by densitometric analysis of zymograms in C. The results are compiled from two independent experiments with n=4 for both wild type (open bars) and Arhgef1^−/− (black bars) samples. The data represent the means±S.E. *, p<0.05 Student's two-tailed t test compared with conditioned media from cells cultured on plastic. #, p<0.05 Student's two-tailed t test comparing conditioned media from wild type cells to Arhgef1^−/− cells cultured under identical conditions. $, p<0.05 Student's two-tailed t test compared with conditioned media from cells cultured on fibronectin. E, MMP2 activity was quantitated in conditioned media as previously described for MMP9. The results are compiled from four independent experiments with n=10 for wild type (open bars) and Arhgef1^−/− (black bars) samples cultured on either plastic or fibronectin. For cells treated with 20 mM aspirin, n=6 for wild type (open bars) and Arhgef1^−/− (black bars) samples. For cells treated with 28 μM L-655,240, n=4 for wild type (open bars) and Arhgef1^−/− (black bars) samples. The data represent the means±S.E. F, MMP9 activity was quantitated as previously described and normalized to a percentage of fibronectin response for each genotype. The cells were either untreated or treated with 0.5% Me2SO or 28 μM L-655,240. The results are compiled from two independent experiments with n=3 for all conditions and genotypes. The data represent the means±S.E. *, p<0.05 Student's two-tailed t test compared with conditioned media from cells cultured on fibronectin. G, relative Mmp9 expression was measured by qPCR in macrophages cultured on fibronectin in the presence of the thromboxane receptor agonist (U-46619, 10 nM), S1P (40 nM), or LPA (10 μM). […] Wild type (open bars, n=12, 6, 3, and 3 for fibronectin, +U-46619, +S1P, and +LPA, respectively) and Arhgef1^−/− (black bars, n=14, 6, 3, and 2, respectively) from at least two independent experiments. The data represent the means±S.E. *, p<0.05 Student's two-tailed t test compared with conditioned media from cells cultured on fibronectin, #, p<0.05 Student's two-tailed t test comparing conditioned media from wild type cells to Arhgef1^−/− cells cultured under identical conditions. […]
On the technique in general: Real-time PCR tracks product formation cycle by cycle.

Assay [3] has as its system Mmp9. Briefly: MMP9 activity in BAL of Arhgef1−/− mice after aerosol exposure. Format: in vivo, mouse. As to conditions: inhalation of aerosol 20 min (220 μM PTXA2, 190 μM U-46619), BAL 24 hours later. As to the method: as §1
The test system of assay [4] is MMP9. Briefly: MMP9 activity by gelatin zymography, peripheral blood monocytes from COPD patients on fibronectin. Format: cell-based, human. As to conditions: monocytes from 3 COPD patients; dose response 0.4 μM to 260 μM. Here is the method:
FIG. 17. Seratrodast (AA-2414) treatment on peripheral blood monocytes from 3 COPD patients. Generated dose response curve going firm 0.4 μM to 260 μM. Measured response by gelatin zymography of conditioned media. A is a representative zymogram from a single individual COPD patient. B depicts results compiled from three COPD patients. *, p<0.05 for ctl vs FN; #, p<0.05 FN vs FN+seratrodast.
For other human studies, we quantitated MMP9 by ELISA in conditioned medium (ELISA TECH, Aurora, Colo.).
Novex (Invitrogen) zymogram 10% gelatin gels were used for zymography as indicated per the manufacturer's instructions on conditioned media. Protease activity was detected as a loss of gelatin at the molecular weight of the indicated MMP and quantified by densitometric analysis using ImageJ (National Institutes of Health) software.
As another example, the thromboxane receptor antagonist seratrodast (AA-2414) was used on peripheral blood monocytes from 3 COPD patients and data collected as shown in FIG. 17.

The mark [5] stands for this setting: wild type and Arhgef1-deficient macrophages on fibronectin, 40 nM S1P, 10 μM LPA, 6 μM PTXA2, 24 h.

As for `CCCCc1nn(-c2ccccc2C(F)(F)F)c(=O)n1Cc1ccc(-c2ccccc2S(=O)(=O)NC(=O)c2sccc2C)cc1` [L-161,982], in the assay with Mmp9 [1], the “maximal inhibition of fibronectin-induced MMP9 production/activity” value was −40%.

With `Cc1c(CC(C)(C)C(=O)O)n(Cc2ccc(Cl)cc2)c2ccc(F)cc12` [L-655,240, 1-[(4-Chlorophenyl)methyl]-5-fluoro-α,α,3-trimethyl-1H-indole-2-propanoic acid], in the assay with Mmp9 [1], the “maximal inhibition of fibronectin-induced MMP9 production/activity” value is −90%. Besides, in the assay on Mmp9 [1] (mouse macrophages, wild type and Arhgef1−/−, 1.6 μM PTXA2, 28 μM L-655,240), the “fibronectin-mediated MMP9 activity (effect in words)” value is given as “significantly reduced MMP9 activity”. Besides, the MMP2 activity result in the assay on MMP2 was “not affected”.

As to `CCCCCCCCCCCCC/C=C/[C@@H](O)[C@@H](N)COP(=O)(O)O` [S1P, sphingosine-1-phosphate], in the assay with Mmp9 [2] (setting [5]), the Mmp9 expression entry is given as “slight decrease in Mmp9 expression; also recorded: modestly depress Mmp9 expression”.

For the compound `CCCCC[C@H](O)/C=C/[C@@H]1[C@@H](C/C=C\CCCC(=O)O)[C@H]2CO[C@@H]1C2` [U-46619], the “MMP9 activity in BAL” value in the assay with Mmp9 [3] was “dramatically increased MMP9 activity”. The Mmp9 expression result is recorded as “expressed significantly more Mmp9; also recorded: considerably increased Mmp9 expression” with Mmp9 [2] (Arhgef1-deficient macrophages on fibronectin, 10 nM U-46619) and “did not affect wild type cells” in the assay with Mmp9 [2] (wild type macrophages on fibronectin, 10 nM U-46619).

Consider `CC1=C(C)C(=O)C(C(CCCCCC(=O)O)c2ccccc2)=C(C)C1=O` (stereo not shown) [seratrodast, 7-phenyl-7-(2,4,5-trimethyl-3,6-dioxocyclohexa-1,4-dien-1-yl)heptanoic acid], for which the “MMP9 activity versus dose” value in the assay on MMP9 [4] was “inverse relationship between MMP9 activity and seratrodast dose”.

For the compound lysophosphatidic acid [LPA], the Mmp9 expression entry in the assay with Mmp9 [2] (setting [5]) is “slight decrease in Mmp9 expression; also recorded: modestly depress Mmp9 expression”.
